Measured values from US20070015741A1, “Novel prodrugs of estradiol” (priority 2005, published 2007).

Assay: Stability at 40° C./75% RH, prodrug assayed by HPLC for degradation to parent compound estradiol
Assay type: physicochemical
Conditions: HPLC assay of prodrug
Method: The following is an example of stability for the preferred compound described previously. Stability was conducted at 40° C./75% RH, with the prodrug being assayed at specific time-points for degradation to the parent compound, estradiol. The time-points for stability were T=0 months, T=2 weeks, T=1 month, and T=3 months. The following outlines the conditions utilized for analysis of the prodrug. Analysis was conducted using High-Performance Liquid Chromatography (HPLC). The retention time for estradiol lactate acetate was approximately 9.0 minutes using these conditions. Conditions for HPLC analysis: [table]

Assay (%) T = 0 (T=0 months): 94.45% | Assay (%) T = 1 (T=1 month): 92.77% | Assay (%) T = 2 W (T=2 weeks): 93.47% | Assay (%) T = 3 (T=3 months): 94.3%
Substance: estradiol lactate-acetate
